Converted amounts (≈) assume the structure as drawn. Each block holds one compound with its values, some of them ahead of it.
Key:
Experiment in all cases: ≥ marks a high value that may be exact or a test limit, other limits are often not marked, values filed in µg/mL are converted to µM
[1] = system: Vibrio vulnificus 204
[2] = system: Pseudomonas aeruginosa ATCC 19660
[3] = system: Streptococcus agalactiae BCRC 10787
[4] = system: Enterococcus faecalis BCRC 10066
[5] = system: Aeromonas hydrophila BCRC 13018
[6] = system: Vibrio alginolyticus
[7] = system: Streptococcus agalactiae 819
[8] = system: Staphylococcus aureus BCRC 10780
[9] = system: Vibrio harveyi BCRC 13812
[10] = system: Streptococcus agalactiae
[11] = system: Pseudomonas aeruginosa
[12] = system: Staphylococcus sp. BCRC 10451
[13] = system: Micrococcus luteus BCRC 11034
[14] = system: Streptococcus pneumoniae BCRC 10794
[15] = system: Staphylococcus aureus
[16] = system: Lacticaseibacillus casei ATCC 4646
[17] = system: Veillonella atypica PK1910
[18] = system: Streptococcus sanguinis NY101
[19] = system: Streptococcus gordonii Challis DL1
[20] = system: Streptococcus mutans
[21] = system: Streptococcus mitis ATCC 903
[22] = system: Escherichia coli K-12
[23] = system: Salmonella typhimurium KCTC 1926
[24] = system: Staphylococcus aureus RN4220
[25] = system: Staphylococcus epidermidis KCTC 1917
[26] = system: Pseudomonas aeruginosa KCTC 1637
[27] = system: Escherichia coli KCTC 1682
[28] = system: Bacillus subtilis 168
[29] = system: Candida albicans CA14
[30] = system: Malassezia sympodialis ATCC 42132
[31] = system: Staphylococcus aureus KCTC 1621
[32] = system: Bacillus subtilis KCTC 3068
[33] = system: Saccharomyces cerevisiae BY4741
[34] = system: Escherichia coli
[35] = system: Bacillus anthracis
[36] = system: Bacillus cereus

MIC [1]: 0.245 µM (≈ 0.62 µg/mL)
MIC [2]: 7.82 µM (≈ 19.8 µg/mL)
MIC [3]: 0.123 µM (≈ 0.31 µg/mL)
MIC [4]: 3.91 µM (≈ 9.89 µg/mL)
MIC [5]: 7.82 µM (≈ 19.8 µg/mL)
MIC [6]: 0.49 µM (≈ 1.24 µg/mL)
MIC [7]: 3.91 µM (≈ 9.89 µg/mL)
Compound: CC[C@H](C)[C@H](NC(=O)[C@H](C)NC(=O)[C@H](CCCN=C(N)N)NC(=O)[C@H](Cc1cnc[nH]1)NC(=O)[C@@H](NC(=O)[C@H](C)NC(=O)[C@H](CCCN=C(N)N)NC(=O)[C@@H](NC(=O)CNC(=O)[C@H](Cc1cnc[nH]1)NC(=O)[C@H](CO)NC(=O)[C@@H](NC(=O)[C@H](Cc1c[nH]c2ccccc12)NC(=O)CNC(=O)[C@@H](NC(=O)[C@@H](NC(=O)[C@H](Cc1cnc[nH]1)NC(=O)[C@H](Cc1cnc[nH]1)NC(=O)[C@@H](NC(=O)[C@@H](N)Cc1ccccc1)[C@@H](C)CC)[C@@H](C)CC)[C@@H](C)CC)[C@@H](C)CC)C(C)C)[C@@H](C)CC)C(=O)N[C@@H](Cc1cnc[nH]1)C(=O)NCC(N)=O [FIHHIIGWISHGVRAIHRAIHG]

MIC [8]: 21.4 µM (≈ 50.9 µg/mL)
MIC [9]: 2.68 µM (≈ 6.36 µg/mL)
MIC [10]: ≥ 42.8 µM
MIC [1]: 21.4 µM (≈ 50.9 µg/mL)
MIC [11]: 5.35 µM (≈ 12.7 µg/mL)
MIC [12]: 2.68 µM (≈ 6.36 µg/mL)
MIC [13]: 2.68 µM (≈ 6.36 µg/mL)
MIC [6]: 2.68 µM (≈ 6.36 µg/mL)
MIC [14]: 21.4 µM (≈ 50.9 µg/mL)
MIC [15]: 5.35 µM (≈ 12.7 µg/mL)
Compound: CC[C@H](C)[C@H](NC(=O)[C@H](CCSC)NC(=O)[C@H](CCCCN)NC(=O)CNC(=O)[C@H](C)NC(=O)[C@H](Cc1cnc[nH]1)NC(=O)[C@H](Cc1ccccc1)NC(=O)[C@H](CC(C)C)NC(=O)CNC(=O)[C@H](CCCCN)NC(=O)[C@@H](NC(=O)[C@@H](NC(=O)[C@H](Cc1cnc[nH]1)NC(=O)[C@H](Cc1ccccc1)NC(=O)[C@@H](NC(=O)[C@H](Cc1ccccc1)NC(=O)CNC(C)=O)[C@@H](C)CC)[C@@H](C)CC)[C@@H](C)CC)C(=O)N[C@@H](Cc1cnc[nH]1)C(=O)NCC(=O)N[C@@H](CC(C)C)C(=O)N[C@H](C(N)=O)C(C)C [GFIFHIIKGLFHAGKMIHGLV]

MIC [16]: 2.14 µM (≈ 8 µg/mL)
MIC [17]: 2.14 µM (≈ 8 µg/mL)
MIC [18]: 4.28 µM (≈ 16 µg/mL)
MIC [19]: 4.28 µM (≈ 16 µg/mL)
MIC [20]: 1.51 µM (≈ 5.66 µg/mL)
MIC [21]: 8.57 µM (≈ 32 µg/mL)
Compound: CC(C)C[C@H](NC(=O)[C@H](CC(C)C)NC(=O)[C@H](Cc1cnc[nH]1)NC(=O)[C@H](Cc1cnc[nH]1)NC(=O)[C@H](CC(C)C)NC(=O)[C@H](CCCCN)NC(=O)[C@H](CCCCN)NC(=O)[C@H](CC(C)C)NC(=O)[C@H](CC(C)C)NC(=O)[C@H](CCCN=C(N)N)NC(=O)[C@H](CCCN=C(N)N)NC(=O)[C@H](Cc1c[nH]c2ccccc12)NC(=O)[C@@H](N)CCCN=C(N)N)C(=O)N[C@@H](Cc1cnc[nH]1)C(=O)NCC(=O)NCC(=O)NCC(=O)N[C@@H](Cc1ccccc1)C(=O)N[C@@H](CCCCN)C(=O)N[C@@H](CCCCN)C(=O)N[C@@H](Cc1ccccc1)C(=O)N[C@@H](Cc1c[nH]c2ccccc12)C(=O)N[C@@H](CCCCN)C(=O)N[C@@H](Cc1c[nH]c2ccccc12)C(=O)N[C@@H](Cc1ccccc1)C(=O)N[C@@H](CCCN=C(N)N)C(=O)N[C@@H](CCCN=C(N)N)C(=O)N[C@@H](Cc1ccccc1)C(N)=O [RWRRLLKKLHHLLHGGGFKKFWKWFRRF]

MIC [22]: 10 µM (≈ 22.1 µg/mL)
MIC [23]: 4 µM (≈ 8.83 µg/mL)
MIC [24]: 10 µM (≈ 22.1 µg/mL)
MIC [25]: 8 µM (≈ 17.7 µg/mL)
MIC [26]: 8 µM (≈ 17.7 µg/mL)
MIC [27]: 16 µM (≈ 35.3 µg/mL)
MIC [28]: 10 µM (≈ 22.1 µg/mL)
MIC [29]: 10 µM (≈ 22.1 µg/mL)
MIC [30]: 4.98 µM (≈ 11 µg/mL)
MIC [31]: 4 µM (≈ 8.83 µg/mL)
MIC [32]: 4 µM (≈ 8.83 µg/mL)
MIC [33]: 10 µM (≈ 22.1 µg/mL)
Compound: CC[C@H](C)[C@H](NC(=O)[C@H](CCCN=C(N)N)NC(=O)[C@H](CCCN=C(N)N)NC(=O)[C@H](CCCN=C(N)N)NC(=O)[C@H](CC(C)C)NC(=O)[C@@H](NC(=O)[C@@H](NC(=O)[C@H](CC(C)C)NC(=O)[C@@H](N)CC(C)C)[C@@H](C)CC)[C@@H](C)CC)C(=O)N[C@@H](CCCN=C(N)N)C(=O)N[C@@H](CCCCN)C(=O)N[C@@H](CCC(N)=O)C(=O)N[C@@H](C)C(=O)N[C@@H](Cc1cnc[nH]1)C(=O)N[C@@H](C)C(=O)N[C@@H](Cc1cnc[nH]1)C(=O)N[C@@H](CO)C(=O)N[C@@H](CCCCN)C(N)=O [LLIILRRRIRKQAHAHSK]

Compound: CC(C)C[C@H](NC(=O)[C@H](Cc1ccccc1)NC(=O)[C@@H]1CCCN1C(=O)[C@H](Cc1ccccc1)NC(=O)[C@@H](NC(=O)[C@H](Cc1ccccc1)NC(=O)[C@H](CC(C)C)NC(=O)[C@@H](NC(=O)[C@H](CCCCN)NC(=O)[C@@H](NC(=O)[C@H](CCCCN)NC(=O)[C@H](CCCCN)NC(=O)[C@H](C)NC(=O)CNC(=O)[C@H](C)NC(=O)[C@@H](NC(=O)[C@H](CO)NC(=O)[C@@H](NC(=O)CN)C(C)C)C(C)C)C(C)C)C(C)C)C(C)C)C(=O)N[C@@H](Cc1ccccc1)C(=O)O [GVSVAGAKKVKVLFVFPFLF]
MIC [34]: > 119 µM
MIC [35]: ≥ 119 µM
MIC [15]: > 119 µM
MIC [36]: ≥ 119 µM
